Experimental data from US20140045809A1, “CORROLES FOR NEUROPROTECTION AND NEURORESCUE” (priority 2008, published 2014).
Entries after “also recorded” stand apart in the source; their conditions may differ.

Assays:
[1] = system: RIN-m cells; assay: Cellular uptake of fluorescent corrole, fluorescence microscopy, RIN-m cells; format: cell-based; conditions: 20 μM, half an hour at 37° C.
Description: (§1) For testing cellular membrane penetration, as well as uptake and accumulation of corroles in the cells, we took advantage of the fluorescence property of an appropriate corrole. For this purpose we used a fluorescent corrole complex (1C-Ga) that is structurally identical to the catalytic compounds utilized in the cytoprotection/cytorescue experiments, except that the chelated metal is gallium(III) rather than iron(III) in 1C-Fe or manganese(III) in 1C-Mn. The results are shown in FIGS. 21A-D for RIN-m (insulinoma) cell line and FIGS. 22A-D for SH-SY5Y (neuroblastoma) cell line.
(§2) To visualize intracellular corrole we used fluorescence microscopy. Neuroblastoma SH-SY5Y cells and insulinoma RIN-m cells were plated on coverslips. At 24 h after plating, corrole 1C-Ga was added directly to the cell media and incubated for half an hour at 37° C. The cells were then aspirated from the media and washed with phosphate buffer to eliminate background signal due to extra cellular corrole. Fixation with formaldehyde was performed. Coverslips with mounting medium (with DAPI) were directly placed on slides and viewed by fluorescence microscopy; the results are shown in FIGS. 21, 22.

[2] = In-vivo fluorescence imaging of corrole in nude mice (IVIS 200); conditions: 19 mg/kg i.p., 30 min after injection
Description: For obtaining information about in-vivo localization and distribution of the various corroles that have sulfonic acid head groups, in-vivo imaging of corroles in whole animals was performed. Of particular interest was to examine whether the leading corrole compounds unlike most porphyrins are able to cross the blood brain barrier (BBB).
The in vivo imaging experiments were performed as follows. Nude mice received i.p. injections of the fluorescent gallium(III) corrole 1C-Ga and were examined by IVIS 200 imaging system [Xenogen].

[3] = system: SH-SY5Y cells; assay: Cellular uptake of fluorescent corrole, fluorescence microscopy, SH-SY5Y cells; format: cell-based, human; conditions: 20 μM, half an hour at 37° C.
Description: as §1, §2

With “2,17-bis(sulfonato)-5,10,15-tris(pentafluorophenyl)-corrolato galium(III) [1C-Ga]” the “cellular uptake and accumulation” value [1] was “accumulation inside the cells”, the “BBB penetration / accumulation in brain area” value [2] was “possible BBB penetration and accumulation of the corrole complex in brain area; also recorded: indicative of the crossing of the blood brain barrier (BBB)” and the “cellular uptake and accumulation” value [3] was “accumulation inside the cells”.
